Test results from patent US12540129B2, “KIF18A inhibitors” (AMGEN INC., priority 2019, dated 2026).

Target: T1, Recombinant human KIF18A (1-467 His-tagged) protein (Homo sapiens, UniProt Q8NI77)
T1 construct: Recombinant human KIF18A (1-467 His-tagged) protein; His; made in house
Assay: KIF18A Enzyme Assay: microtubule-stimulated ATPase activity (ADP-Glo)
Type: biochemical
Settings: 30 nM KIF18A, 75 μM ATP
In short: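 Recombinant human KIF18A (1-467, His-tagged), baculovirus-expressed, assayed for microtubule-stimulated ATPase activity; ADP formed detected by ADP-Glo luminescence. Compounds tested as 22-point 2-fold serial dilutions in DMSO. IC50 from four-parameter logistic fit.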

T1 sequence (Q8NI77 1-467): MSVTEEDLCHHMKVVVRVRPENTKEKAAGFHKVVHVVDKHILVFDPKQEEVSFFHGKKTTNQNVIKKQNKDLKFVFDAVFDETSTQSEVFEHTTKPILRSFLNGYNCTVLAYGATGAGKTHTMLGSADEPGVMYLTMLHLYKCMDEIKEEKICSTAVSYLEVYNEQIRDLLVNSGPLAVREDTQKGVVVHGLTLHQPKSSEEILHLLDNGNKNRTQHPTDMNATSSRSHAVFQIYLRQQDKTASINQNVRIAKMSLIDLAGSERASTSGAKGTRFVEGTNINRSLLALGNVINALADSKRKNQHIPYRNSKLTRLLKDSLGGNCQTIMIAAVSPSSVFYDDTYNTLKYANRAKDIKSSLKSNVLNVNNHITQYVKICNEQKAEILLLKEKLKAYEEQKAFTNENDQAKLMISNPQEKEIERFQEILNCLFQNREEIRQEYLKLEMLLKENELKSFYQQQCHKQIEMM
T1 sequence (P02550 whole entry partner): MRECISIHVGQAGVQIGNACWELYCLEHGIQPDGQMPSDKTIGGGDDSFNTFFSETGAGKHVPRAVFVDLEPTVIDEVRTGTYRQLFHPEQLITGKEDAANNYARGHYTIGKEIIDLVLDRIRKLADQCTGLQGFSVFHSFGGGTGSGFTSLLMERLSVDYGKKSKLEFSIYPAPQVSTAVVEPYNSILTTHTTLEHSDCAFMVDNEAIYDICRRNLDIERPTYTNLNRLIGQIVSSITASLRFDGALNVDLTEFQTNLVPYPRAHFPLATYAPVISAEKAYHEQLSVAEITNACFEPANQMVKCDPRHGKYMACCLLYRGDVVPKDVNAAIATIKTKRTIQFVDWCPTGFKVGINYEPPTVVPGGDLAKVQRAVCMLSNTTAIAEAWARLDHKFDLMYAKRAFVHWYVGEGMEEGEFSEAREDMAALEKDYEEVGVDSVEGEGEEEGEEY
T1 sequence (P02554 whole entry partner): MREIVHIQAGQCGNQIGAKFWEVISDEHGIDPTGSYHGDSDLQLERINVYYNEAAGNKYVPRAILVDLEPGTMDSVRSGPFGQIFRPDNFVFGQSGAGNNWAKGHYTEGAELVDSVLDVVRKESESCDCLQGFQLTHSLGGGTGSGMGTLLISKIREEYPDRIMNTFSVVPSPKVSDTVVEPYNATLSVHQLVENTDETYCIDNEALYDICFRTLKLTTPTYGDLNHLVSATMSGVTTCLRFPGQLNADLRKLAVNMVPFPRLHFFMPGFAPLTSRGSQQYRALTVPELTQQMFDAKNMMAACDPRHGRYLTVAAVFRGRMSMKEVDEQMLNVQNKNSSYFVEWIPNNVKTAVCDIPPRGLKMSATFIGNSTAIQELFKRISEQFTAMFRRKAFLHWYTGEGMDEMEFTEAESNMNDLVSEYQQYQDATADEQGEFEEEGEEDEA

Structure (SMILES)	IC50 [nM]
O=C(Nc1cccc(S(=O)(=O)C2CCCC2)c1)c1ccc(N2CCC2)nc1N1CCC2(CCC2)CC1 [Example 103-26, 6-(azctidin-1-yl)-N-(3-(cyclopentylsulfonyl)phenyl)-2-(7-azaspiro[3.5]nonan-7-yl)nicotinamide]	141
O=C(Nc1cccc(S(=O)(=O)C2CCCC2)c1)c1ccc(N2CCOCC2)nc1N1CCC2(CCC2)CC1 [Example 103-27, N-(3-(cyclopentylsulfonyl)phenyl)-6-morpholino-2-(7-azaspiro[3.5]nonan-7-yl)nicotinamide]	688
O=C(Nc1cccc(S(=O)(=O)C2CCCC2)c1)c1ccc(OC2COC2)nc1N1CCC2(CC1)CC2 [Example 104, N-(3-(cyclopentylsulfonyl)phenyl)-6-(oxctan-3-yloxy)-2-(6-azaspiro[2.5]octan-6-yl)nicotinamide]	296
CC(C)CS(=O)(=O)c1cccc(NC(=O)c2ccc(NC(C)(C)CO)nc2N2CCC3(CC2)CC3)c1 [Example 105-4, 6-((1-hydroxy-2-methylpropan-2-yl)amino)-N-(3-(isobutylsulfonyl)phenyl)-2-(6-azaspiro[2.5]octan-6-yl)nicotinamide]	42
Cc1ccc(NC(=O)c2ccc(NC(C)(C)CO)nc2N2CCC3(CC2)CC3)cc1S(=O)(=O)C1CCCC1 [Example 105-8, N-(3-(cyclopentylsulfonyl)-4-methylphenyl)-6-((1-hydroxy-2-methylpropan-2-yl)amino)-2-(6-azaspiro[2.5]octan-6-yl)nicotinamide]	55
Cc1ccc(NC(=O)c2ccc(NC(C)(C)CO)nc2N2CCC3(CCC3)CC2)cc1S(=O)(=O)C1CCCC1 [Example 105-9, N-(3-(cyclopentylsulfonyl)-4-methylphenyl)-6-((1-hydroxy-2-methylpropan-2-yl)amino)-2-(7-azaspiro[3.5]nonan-7-yl)nicotinamide]	68
Cc1ccc(NC(=O)c2ccc(NC3(CO)CC3)nc2N2CCC3(CC2)CC3)cc1S(=O)(=O)C1CCCC1 [Example 105-10, N-(3-(cyclopentylsulfonyl)-4-methylphenyl)-6-((1-(hydroxymethyl)cyclopropyl)amino)-2-(6-azaspiro[2.5]octan-6-yl)nicotinamide]	58
CC1(NS(=O)(=O)c2cccc(NC(=O)c3ccc(NC4(CO)CC4)nc3N3CCC4(CC3)CC4)c2)CCC1 [Example 105-12, 6-((1-(hydroxymethyl)cyclopropyl)amino)-N-(3-(N-(1-methylcyclobutyl)sulfamoyl)phenyl)-2-(6-azaspiro[2.5]octan-6-yl)nicotinamide]	105
CC(C)(CO)Nc1ccc(C(=O)Nc2cccc(S(=O)(=O)NC3(C)CCC3)c2)c(N2CCC3(CC2)CC3)n1 [Example 105-13, 6-((1-hydroxy-2-methylpropan-2-yl)amino)-N-(3-(N-(1-methylcyclobutyl)sulfamoyl)phenyl)-2-(6-azaspiro[2.5]octan-6-yl)nicotinamide]	56
CC(C)(C)NS(=O)(=O)c1cc(NC(=O)c2ccc(NC(C)(C)CO)nc2N2CCC3(CC2)CC3)ccc1Cl [Example 105-19, N-(3-(N-(tert-butyl)sulfamoyl)-4-chlorophenyl)-6-((1-hydroxy-2-methylpropan-2-yl)amino)-2-(6-azaspiro[2.5]octan-6-yl)nicotinamide]	70
COc1cc(NC(=O)c2ccc(NC(C)(C)CO)nc2N2CCC3(CC2)CC3)cc(S(=O)(=O)NC(C)(C)C)c1 [Example 105-22, N-(3-(N-(tert-butyl)sulfamoyl)-5-methoxyphenyl)-6-((1-hydroxy-2-methylpropan-2-yl)amino)-2-(6-azaspiro[2.5]octan-6-yl)nicotinamide]	134
CC(C)(C)NS(=O)(=O)c1cccc(NC(=O)c2ccc(NC(C)(C)CO)nc2N2CCC3(CC2)CC3)c1F [Example 105-23, N-(3-(N-(tert-butyl)sulfamoyl)-2-fluorophenyl)-6-((1-hydroxy-2-methylpropan-2-yl)amino)-2-(6-azaspiro[2.5]octan-6-yl)nicotinamide]	177
CC(C)(C)NS(=O)(=O)c1cc(Br)cc(NC(=O)c2ccc(NC(C)(C)CO)nc2N2CCC3(CC2)CC3)c1 [Example 105-24, N-(3-bromo-5-(N-(tert-butyl)sulfamoyl)phenyl)-6-((1-hydroxy-2-methylpropan-2-yl)amino)-2-(6-azaspiro[2.5]octan-6-yl)nicotinamide]	143

Continued by falling IC50, values first:

IC50 [nM]	Structure (SMILES)
800	O=C(Nc1cccc(S(=O)(=O)NC2CC2)c1)c1ccc(NC2(CO)CC2)nc1N1CCC2(CC1)CC2 [Example 105-15, N-(3-(N-cyclopropylsulfamoyl)phenyl)-6-((1-(hydroxymethyl)cyclopropyl)amino)-2-(6-azaspiro[2.5]octan-6-yl)nicotinamide]
261	COc1ccc(C(=O)Nc2cccc(S(=O)(=O)C3CCCC3)c2)c(N2CCC3(CC2)CC3)n1 [Example 104-1, N-(3-(cyclopentylsulfonyl)phenyl)-6-methoxy-2-(6-azaspiro[2.5]octan-6-yl)nicotinamide]
208	CC(C)(CO)Nc1ccc(C(=O)Nc2cccc(S(=O)(=O)C(C)(C)C(F)(F)F)c2)c(N2CCC3(CC2)CC3)n1 [Example 105-3, 6-((1-hydroxy-2-methylpropan-2-yl)amino)-2-(6-azaspiro[2.5]octan-6-yl)-N-(3-((1,1,1-trifluoro-2-methylpropan-2-yl)sulfonyl)phenyl)nicotinamide]
186	CC(C)(CO)Nc1ccc(C(=O)Nc2cccc(S(=O)(=O)C(F)(F)F)c2)c(N2CCC3(CC2)CC3)n1 [Example 105-5, 6-((1-hydroxy-2-methylpropan-2-yl)amino)-2-(6-azaspiro[2.5]octan-6-yl)-N-(3-((trifluoromethyl)sulfonyl)phenyl)nicotinamide]
162	COc1ccc(NC(=O)c2ccc(NC(C)(C)CO)nc2N2CCC3(CC2)CC3)cc1S(=O)(=O)NC(C)(C)C [Example 105-20, N-(3-(N-(tert-butyl)sulfamoyl)-4-methoxyphenyl)-6-((1-hydroxy-2-methylpropan-2-yl)amino)-2-(6-azaspiro[2.5]octan-6-yl)nicotinamide]
122	Cc1cc(NC(=O)c2ccc(NC(C)(C)CO)nc2N2CCC3(CC2)CC3)cc(S(=O)(=O)NC(C)(C)C)c1 [Example 105-18, N-(3-(N-(tert-butyl)sulfamoyl)-5-methylphenyl)-6-((1-hydroxy-2-methylpropan-2-yl)amino)-2-(6-azaspiro[2.5]octan-6-yl)nicotinamide]
121	Cc1ccc(NC(=O)c2ccc(NC(C)(C)CO)nc2N2CCC3(CC2)CC3)cc1S(=O)(=O)NC(C)(C)C [Example 105-16, N-(3-(N-(tert-butyl)sulfamoyl)-4-methylphenyl)-6-((1-hydroxy-2-methylpropan-2-yl)amino)-2-(6-azaspiro[2.5]octan-6-yl)nicotinamide]
116	CC(C)(C)NS(=O)(=O)c1cc(NC(=O)c2ccc(NC(C)(C)CO)nc2N2CCC3(CC2)CC3)ccc1F [Example 105-17, N-(3-(N-(tert-butyl)sulfamoyl)-4-fluorophenyl)-6-((1-hydroxy-2-methylpropan-2-yl)amino)-2-(6-azaspiro[2.5]octan-6-yl)nicotinamide]
108	CC(C)(C)NS(=O)(=O)c1cc(F)cc(NC(=O)c2ccc(NC(C)(C)CO)nc2N2CCC3(CC2)CC3)c1 [Example 105-21, N-(3-(N-(tert-butyl)sulfamoyl)-5-fluorophenyl)-6-((1-hydroxy-2-methylpropan-2-yl)amino)-2-(6-azaspiro[2.5]octan-6-yl)nicotinamide]
94	CC(C)(C)NS(=O)(=O)c1cccc(NC(=O)c2ccc(NC3(CO)CC3)nc2N2CCC3(CC2)CC3)c1 [Example 105-11, N-(3-(N-(tert-butyl)sulfamoyl)phenyl)-6-((1-(hydroxymethyl)cyclopropyl)amino)-2-(6-azaspiro[2.5]octan-6-yl)nicotinamide]
80	CC(C)(C)NS(=O)(=O)c1cccc(NC(=O)c2ccc(NC(C)(C)CCO)nc2N2CCC3(CC2)CC3)c1 [Example 103-28, N-(3-(N-(tert-butyl)sulfamoyl)phenyl)-6-((4-hydroxy-2-methylbutan-2-yl)amino)-2-(6-azaspiro[2.5]octan-6-yl)nicotinamide]
80	CC(C)(CO)Nc1ccc(C(=O)Nc2cccc(S(=O)(=O)C(C)(C)C)c2)c(N2CCC3(CC2)CC3)n1 [Example 105-2, N-(3-(tert-butylsulfonyl)phenyl)-6-((1-hydroxy-2-methylpropan-2-yl)amino)-2-(6-azaspiro[2.5]octan-6-yl)nicotinamide]
77	CC(C)(CO)Nc1ccc(C(=O)Nc2cccc(S(=O)(=O)C3(C)CCC3)c2)c(N2CCC3(CC2)CC3)n1 [Example 105-1, 6-((1-hydroxy-2-methylpropan-2-yl)amino)-N-(3-((1-methylcyclobutyl)sulfonyl)phenyl)-2-(6-azaspiro[2.5]octan-6-yl)nicotinamide]
38	O=C(Nc1cccc(S(=O)(=O)C2CCCC2)c1)c1ccc(NC2(CO)CC2)nc1N1CCC2(CCC2)CC1 [Example 103-25, N-(3-(cyclopentylsulfonyl)phenyl)-6-((1-(hydroxymethyl)cyclopropyl)amino)-2-(7-azaspiro[3.5]nonan-7-yl)nicotinamide]
36	O=C(Nc1cccc(S(=O)(=O)C2CCCC2)c1)c1ccc(NCCO)nc1N1CCC2(CCC2)CC1 [Example 103-24, N-(3-(cyclopentylsulfonyl)phenyl)-6-((2-hydroxyethyl)amino)-2-(7-azaspiro[3.5]nonan-7-yl)nicotinamide]
33	CC(C)(CO)Nc1ccc(C(=O)Nc2cccc(S(=O)(=O)NC3CC3)c2)c(N2CCC3(CC2)CC3)n1 [Example 105-14, N-(3-(N-cyclopropylsulfamoyl)phenyl)-6-((1-hydroxy-2-methylpropan-2-yl)amino)-2-(6-azaspiro[2.5]octan-6-yl)nicotinamide]
28	CC(C)(CO)Nc1ccc(C(=O)Nc2cccc(S(=O)(=O)C3CCC3)c2)c(N2CCC3(CC2)CC3)n1 [Example 105-6, N-(3-(cyclobutylsulfonyl)phenyl)-6-((1-hydroxy-2-methylpropan-2-yl)amino)-2-(6-azaspiro[2.5]octan-6-yl)nicotinamide]
